Experimental data from ChEMBL document CHEMBL4808193, “[11]-Chaetoglobosins from Pseudeurotium bakeri Induce G2/M Cell Cycle Arrest and Apoptosis in Human Cancer Cells” (J Nat Prod, 2021).
pIC50: −log10 of the molar value.

Key:
A-427 [1] = assay: Induction of apoptosis in human A-427 cells assessed as early apoptotic cells at 6 uM measured after 24 hrs by Annexin V-FITC/propidium iodide staining based flow cytometric analysis (reference value: 4.50%); format: functional
A-427 [2] = assay: Cell cycle arrest in human A-427 cells assessed as accumulation at G2/M phase at 4 uM measured after 24 hrs by PI staining based flow cytometry (reference value: 17.34%); format: functional
A-427 [3] = assay: Cell cycle arrest in human A-427 cells assessed as accumulation at S phase at 2 uM measured after 24 hrs by PI staining based flow cytometry (reference value: 37.30%); format: functional
MCF7 [4] = assay: Cell cycle arrest in human MCF7 cells assessed as accumulation at S phase at 15 uM measured after 24 hrs by PI staining based flow cytometry (reference value: 22.83%); format: functional
L02 = assay: Cytotoxicity against human L02 cells assessed as reduction in cell viability by MTT assay; format: cell-based
MCF7 [5] = assay: Cytotoxicity against human MCF7 cells assessed as reduction in cell viability by MTT assay; format: functional, cell-based
MCF7 [6] = assay: Cell cycle arrest in human MCF7 cells assessed as accumulation at G2/M phase at 10 uM measured after 24 hrs by PI staining based flow cytometry (reference value: 14.79%); format: functional
HepG2 = assay: Cytotoxicity against human HepG2 cells assessed as reduction in cell viability by MTT assay; format: functional, cell-based
MCF7 [7] = assay: Cell cycle arrest in human MCF7 cells assessed as accumulation at G0/G1 phase at 15 uM measured after 24 hrs by PI staining based flow cytometry (reference value: 62.38%); format: functional
A-427 [8] = assay: Cell cycle arrest in human A-427 cells assessed as accumulation at G2/M phase at 2 uM measured after 24 hrs by PI staining based flow cytometry (reference value: 17.34%); format: functional
A-427 [9] = assay: Induction of apoptosis in human A-427 cells assessed as early apoptotic cells at 2 uM measured after 24 hrs by Annexin V-FITC/propidium iodide staining based flow cytometric analysis (reference value: 4.50%); format: functional
A-427 [10] = assay: Cell cycle arrest in human A-427 cells assessed as accumulation at G0/G1 phase at 6 uM measured after 24 hrs by PI staining based flow cytometry (reference value: 45.36%); format: functional
MCF7 [11] = assay: Cell cycle arrest in human MCF7 cells assessed as accumulation at G2/M phase at 15 uM measured after 24 hrs by PI staining based flow cytometry (reference value: 14.79%); format: functional
A-427 [12] = assay: Cell cycle arrest in human A-427 cells assessed as accumulation at S phase at 6 uM measured after 24 hrs by PI staining based flow cytometry (reference value: 37.30%); format: functional
A-427 [13] = assay: Cell cycle arrest in human A-427 cells assessed as accumulation at S phase at 4 uM measured after 24 hrs by PI staining based flow cytometry (reference value: 37.30%); format: functional
MCF7 [14] = assay: Induction of apoptosis in human MCF7 cells assessed as early apoptotic cells at 10 uM measured after 24 hrs by Annexin V-FITC/propidium iodide staining based flow cytometric analysis (reference value: 2.97%); format: functional
A-427 [15] = assay: Induction of apoptosis in human A-427 cells assessed as early apoptotic cells at 4 uM measured after 24 hrs by Annexin V-FITC/propidium iodide staining based flow cytometric analysis (reference value: 4.50%); format: functional
MCF7 [16] = assay: Cell cycle arrest in human MCF7 cells assessed as accumulation at S phase at 5 uM measured after 24 hrs by PI staining based flow cytometry (reference value: 22.83%); format: functional
HeLa = assay: Cytotoxicity against human HeLa cells assessed as reduction in cell viability by MTT assay; format: functional, cell-based
A-427 [17] = assay: Induction of apoptosis in human A-427 cells assessed as late apoptotic cells at 6 uM measured after 24 hrs by Annexin V-FITC/propidium iodide staining based flow cytometric analysis (reference value: 1.70%); format: functional
MCF7 [18] = assay: Cell cycle arrest in human MCF7 cells assessed as accumulation at G0/G1 phase at 10 uM measured after 24 hrs by PI staining based flow cytometry (reference value: 62.38%); format: functional
A549 = assay: Cytotoxicity against human A549 cells assessed as reduction in cell viability by MTT assay; format: functional, cell-based
MCF7 [19] = assay: Induction of apoptosis in human MCF7 cells assessed as early apoptotic cells at 5 uM measured after 24 hrs by Annexin V-FITC/propidium iodide staining based flow cytometric analysis (reference value: 2.97%); format: functional
A-427 [20] = assay: Induction of apoptosis in human A-427 cells assessed as late apoptotic cells at 2 uM measured after 24 hrs by Annexin V-FITC/propidium iodide staining based flow cytometric analysis (reference value: 1.70%); format: functional
MCF7 [21] = assay: Cell cycle arrest in human MCF7 cells assessed as accumulation at S phase at 10 uM measured after 24 hrs by PI staining based flow cytometry (reference value: 22.83%; format: functional
MCF7 [22] = assay: Induction of apoptosis in human MCF7 cells assessed as early apoptotic cells at 15 uM measured after 24 hrs by Annexin V-FITC/propidium iodide staining based flow cytometric analysis (reference value: 2.97%); format: functional
HCT-116 = assay: Cytotoxicity against human HCT-116 cells assessed as reduction in cell viability by MTT assay; format: functional, cell-based
A-427 [23] = assay: Cell cycle arrest in human A-427 cells assessed as accumulation at G0/G1 phase at 4 uM measured after 24 hrs by PI staining based flow cytometry (reference value: 45.36%); format: functional
MCF7 [24] = assay: Cell cycle arrest in human MCF7 cells assessed as accumulation at G2/M phase at 5 uM measured after 24 hrs by PI staining based flow cytometry (reference value: 14.79%); format: functional
A-427 [25] = assay: Cell cycle arrest in human A-427 cells assessed as accumulation at G2/M phase at 6 uM measured after 24 hrs by PI staining based flow cytometry (reference value: 17.34%); format: functional
MCF7 [26] = assay: Cell cycle arrest in human MCF7 cells assessed as accumulation at G0/G1 phase at 5 uM measured after 24 hrs by PI staining based flow cytometry (reference value: 62.38%); format: functional
A-427 [27] = assay: Induction of apoptosis in human A-427 cells assessed as late apoptotic cells at 4 uM measured after 24 hrs by Annexin V-FITC/propidium iodide staining based flow cytometric analysis (reference value: 1.70%); format: functional
A-427 [28] = assay: Cytotoxicity against human A-427 cells assessed as reduction in cell viability by MTT assay; format: functional, cell-based
MCF7 [29] = assay: Induction of apoptosis in human MCF7 cells assessed as late apoptotic cells at 5 uM measured after 24 hrs by Annexin V-FITC/propidium iodide staining based flow cytometric analysis (reference value: 0.76%); format: functional
HT-29 = assay: Cytotoxicity against human HT-29 cells assessed as reduction in cell viability by MTT assay; format: functional, cell-based
A-427 [30] = assay: Cell cycle arrest in human A-427 cells assessed as accumulation at G0/G1 phase at 2 uM measured after 24 hrs by PI staining based flow cytometry (reference value: 45.36%); format: functional
MCF7 [31] = assay: Induction of apoptosis in human MCF7 cells assessed as late apoptotic cells at 15 uM measured after 24 hrs by Annexin V-FITC/propidium iodide staining based flow cytometric analysis (reference value: 0.76%); format: functional
MCF7 [32] = assay: Induction of apoptosis in human MCF7 cells assessed as late apoptotic cells at 10 uM measured after 24 hrs by Annexin V-FITC/propidium iodide staining based flow cytometric analysis (reference value: 0.76%); format: functional

Q: How did the Activity (A-427 [1]) turn out when CC1=C[C@@H]2/C=C/C[C@H](C)CC(=O)/C=C/C(=O)[C@]23C(=O)N[C@@H](Cc2c[nH]c4ccccc24)[C@@H]3[C@@H]1C was run?
A: 24.44%

Q: What about the Activity (A-427 [2]) of the same compound?
A: 47.21%

Q: What about the Activity (A-427 [3]) of the same compound?
A: 19.88%

Q: And the Activity (MCF7 [4])?
A: 8.11%

Q: And the pIC50 (L02)?
A: 4.44

Q: What about the pIC50 (MCF7 [5]) of the same compound?
A: 5.19

Q: And the Activity (MCF7 [6])?
A: 51.9%

Q: And the pIC50 (HepG2)?
A: 5.04

Q: What about the Activity (MCF7 [7]) of the same compound?
A: 36.2%

Q: And the Activity (A-427 [8])?
A: 36.13%

Q: And the Activity (A-427 [9])?
A: 8.26%

Q: And the Activity (A-427 [10])?
A: 33.91%

Q: And the Activity (MCF7 [11])?
A: 55.69%

Q: What about the Activity (A-427 [12]) of the same compound?
A: 16.51%

Q: What about the Activity (A-427 [13]) of the same compound?
A: 16.28%

Q: What about the Activity (MCF7 [14]) of the same compound?
A: 19.17%

Q: And the Activity (A-427 [15])?
A: 19.74%

Q: What about the Activity (MCF7 [16]) of the same compound?
A: 8.32%

Q: And the pIC50 (HeLa)?
A: 5.07

Q: And the Activity (A-427 [17])?
A: 29.64%

Q: And the Activity (MCF7 [18])?
A: 40.98%

Q: And the pIC50 (A549)?
A: 5.02

Q: And the Activity (MCF7 [19])?
A: 11.22%

Q: What about the Activity (A-427 [20]) of the same compound?
A: 14.29%

Q: What about the Activity (MCF7 [21]) of the same compound?
A: 7.12%

Q: What about the Activity (MCF7 [22]) of the same compound?
A: 32.79%

Q: What about the pIC50 (HCT-116) of the same compound?
A: 4.91

Q: What about the Activity (A-427 [23]) of the same compound?
A: 36.51%

Q: What about the Activity (MCF7 [24]) of the same compound?
A: 42.67%

Q: What about the Activity (A-427 [25]) of the same compound?
A: 49.58%

Q: What about the Activity (MCF7 [26]) of the same compound?
A: 49.01%

Q: What about the Activity (A-427 [27]) of the same compound?
A: 25.77%

Q: What about the pIC50 (A-427 [28]) of the same compound?
A: 5.32

Q: And the Activity (MCF7 [29])?
A: 5.79%

Q: What about the pIC50 (HT-29) of the same compound?
A: 5.05

Q: What about the Activity (A-427 [30]) of the same compound?
A: 43.99%

Q: What about the Activity (MCF7 [31]) of the same compound?
A: 13.22%

Q: And the Activity (MCF7 [32])?
A: 6.99%
